Laboratory results from US10294202B2, “Pyrrolidinones as herbicides” (FMC Corporation, priority 2013, dated 2019).

Columns and labels:
giant foxtail = assay: Test A pre-/postemergence herbicide test; assay type: in vivo, Setaria faberii
How it was run: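 Scoring was visual, relative to untreated controls, on a 0–100 scale after about 10 greenhouse days. Preemergence treatment used a directed soil spray over seeded loam/sand; postemergence treatment targeted one- to two-leaf plants of 2–10 cm.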

ragweed = assay: Test C pre-/postemergence herbicide test; assay type: in vivo, Ambrosia elatior
How it was run: (§1)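 Response scores range from 0, meaning no effect, to 100, meaning complete control, assigned visually by comparison with controls roughly two weeks (13 to 15 days) after spraying. Applications were made preemergence to seeded loam–sand soil and postemergence to 1- to 4-leaf plants.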

ryegrass, Italian = assay: Test C pre-/postemergence herbicide test; assay type: in vivo, Lolium multiflorum
How it was run: as §1

waterhemp = assay: Test C pre-/postemergence herbicide test; assay type: in vivo, Amaranthus rudis
How it was run: as §1

barnyardgrass [1] = assay: Test B flooded paddy test; assay type: in vivo, Echinochloa crus-galli; conditions: Flood, scale of 0 to 100 where 0 is no effect and 100 is complete control
How it was run: (§2)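 Plants grown to 2-leaf stage; pots flooded 3 cm above soil and compound applied directly into paddy water, depth held throughout. Visual rating against untreated controls after 13 to 15 days in greenhouse, 0 (no effect) to 100 (complete control).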

sedge, umbrella = assay: Test B flooded paddy test; assay type: in vivo, Cyperus difformis; conditions: Flood, scale of 0 to 100 where 0 is no effect and 100 is complete control
How it was run: as §2

johnsongrass = assay: Test C pre-/postemergence herbicide test; assay type: in vivo, Sorghum halepense
How it was run: as §1

barnyardgrass [2] = assay: Test C pre-/postemergence herbicide test; assay type: in vivo, Echinochloa crus-galli
How it was run: as §1

velvetleaf = assay: Test C pre-/postemergence herbicide test; assay type: in vivo, Abutilon theophrasti
How it was run: as §1

crabgrass, large = assay: Test C pre-/postemergence herbicide test; assay type: in vivo, Digitaria sanguinalis
How it was run: as §1

oat, wild = assay: Test C pre-/postemergence herbicide test; assay type: in vivo, Avena fatua
How it was run: as §1

[3] = Postemergence, 500 g ai/ha, 0 to 100 scale (0 no effect, 100 complete control)
[4] = Preemergence, 125 g ai/ha, 0 to 100 scale where 0 is no effect and 100 is complete control
[5] = Postemergence, 31 g ai/ha, scale 0 to 100 (0 no effect, 100 complete control)
[6] = Postemergence, 62 g ai/ha, scale 0 (no effect) to 100 (complete control)
[7] = Postemergence, 125 g ai/ha, scale 0 to 100 (0 no effect, 100 complete control)
[8] = Postemergence, 250 g ai/ha, scale 0 to 100 (0 no effect, 100 complete control)
[9] = Preemergence, 31 g ai/ha, scale 0 to 100, 0 is no effect and 100 is complete control
[10] = Preemergence, 62 g ai/ha, scale 0 to 100 (0 no effect, 100 complete control)
[11] = Preemergence, 125 g ai/ha, scale 0 to 100 (0 no effect, 100 complete control)
[12] = Preemergence, 125 g ai/ha, scale 0 to 100
[13] = Preemergence, 62 g ai/ha, scale 0 to 100

O=C1NCC(c2cc(F)cc(F)c2)C1C(=O)Nc1ccc(F)cc1F (racemic) [Compound 278]
Plant response rating, Foxtail, Giant (giant foxtail; Postemergence, 125 g ai/ha, 0 to 100 scale, 0 is no effect, 100 is complete control): 80 | Plant response rating, Foxtail, Giant (giant foxtail; [3]): 80 | Plant response rating, Foxtail, Giant (giant foxtail; [4]): 90 | Plant response rating, Foxtail, Giant (giant foxtail; preemergence, 500 g ai/ha, 0 to 100 scale, 0 is no effect and 100 is complete control): 90 | Plant response rating, Ragweed (ragweed; [5]): 0 | Plant response rating, Ragweed (ragweed; [6]): 0 | Plant response rating, Ragweed (ragweed; [7]): 10 | Plant response rating, Ragweed (ragweed; [8]): 0 | Ragweed plant response rating (ragweed; [9]): 0 | Ragweed plant response rating (ragweed; [10]): 0 | Plant response rating, Ragweed (ragweed; [11]): 0 | Plant response rating (scale of 0 to 100), Ragweed (ragweed; Preemergence, 250 g ai/ha): 0 | Plant response rating, Ryegrass, Italian (ryegrass, Italian; [5]): 0 | Plant response rating, Ryegrass, Italian (ryegrass, Italian; [6]): 0 | Plant response rating, Ryegrass, Italian (ryegrass, Italian; [7]): 0 | Plant response rating, Ryegrass, Italian (ryegrass, Italian; [8]): 0 | Ryegrass, Italian plant response rating (ryegrass, Italian; [9]): 0 | Ryegrass, Italian plant response rating (ryegrass, Italian; [10]): 0 | Plant response rating, Ryegrass, Italian (ryegrass, Italian; [11]): 0 | Plant response rating (scale of 0 to 100), Ryegrass, Italian (ryegrass, Italian; Preemergence, 250 g ai/ha): 0 | Plant response rating, Waterhemp (waterhemp; [5]): 0 | Plant response rating, Waterhemp (waterhemp; [6]): 0 | Plant response rating, Waterhemp (waterhemp; [7]): 5 | Plant response rating, Waterhemp (waterhemp; [8]): 5 | Waterhemp plant response rating (waterhemp; [9]): 0 | Waterhemp plant response rating (waterhemp; [10]): 0 | Plant response rating, Waterhemp (waterhemp; [11]): 0 | Plant response rating (scale of 0 to 100), Waterhemp (waterhemp; Preemergence, 250 g ai/ha): 0 | Plant response rating, Barnyardgrass (barnyardgrass [1]; 500 g ai/ha): 60 | Plant response rating, Sedge, Umbrella (sedge, umbrella; 500 g ai/ha): 0 | Plant response rating, Johnsongrass (johnsongrass; [5]): 0 | Plant response rating, Johnsongrass (johnsongrass; [6]): 0 | Plant response rating, Johnsongrass (johnsongrass; [7]): 0 | Plant response rating, Johnsongrass (johnsongrass; [8]): 0 | Johnsongrass plant response rating (johnsongrass; [9]): 0 | Johnsongrass plant response rating (johnsongrass; [10]): 0 | Plant response rating, Johnsongrass (johnsongrass; [11]): 0 | Plant response rating (scale of 0 to 100), Johnsongrass (johnsongrass; Preemergence, 250 g ai/ha): 0 | Plant response rating, Barnyardgrass (barnyardgrass [2]; [5]): 0 | Plant response rating, Barnyardgrass (barnyardgrass [2]; [6]): 10 | Plant response rating, Barnyardgrass (barnyardgrass [2]; [7]): 55 | Plant response rating, Barnyardgrass (barnyardgrass [2]; [8]): 75 | Barnyardgrass plant response rating (barnyardgrass [2]; [9]): 65 | Barnyardgrass plant response rating (barnyardgrass [2]; [10]): 90 | Plant response rating, Barnyardgrass (barnyardgrass [2]; [11]): 95 | Plant response rating (scale of 0 to 100; 0 is no effect, 100 is complete control), Barnyardgrass (barnyardgrass [2]; Preemergence, 250 g ai/ha): 100 | Plant response rating, Velvetleaf (velvetleaf; [5]): 0 | Plant response rating, Velvetleaf (velvetleaf; [6]): 0 | Plant response rating, Velvetleaf (velvetleaf; [7]): 10 | Plant response rating, Velvetleaf (velvetleaf; [8]): 20 | Velvetleaf plant response rating (velvetleaf; [9]): 0 | Velvetleaf plant response rating (velvetleaf; [10]): 0 | Plant response rating, Velvetleaf (velvetleaf; [11]): 0 | Plant response rating (scale of 0 to 100), Velvetleaf (velvetleaf; Preemergence, 250 g ai/ha): 0 | Plant response rating, Crabgrass, Large (crabgrass, large; [5]): 0 | Plant response rating, Crabgrass, Large (crabgrass, large; [6]): 30 | Plant response rating, Crabgrass, Large (crabgrass, large; [7]): 65 | Plant response rating, Crabgrass, Large (crabgrass, large; [8]): 75 | Crabgrass, Large plant response rating (crabgrass, large; [9]): 90 | Crabgrass, Large plant response rating (crabgrass, large; [10]): 95 | Plant response rating, Crabgrass, Large (crabgrass, large; [11]): 98 | Plant response rating (scale of 0 to 100), Crabgrass, Large (crabgrass, large; Preemergence, 250 g ai/ha): 100 | Plant response rating, Oat, Wild (oat, wild; [5]): 0 | Plant response rating, Oat, Wild (oat, wild; [6]): 0 | Plant response rating, Oat, Wild (oat, wild; [7]): 0 | Plant response rating, Oat, Wild (oat, wild; [8]): 0

O=C1NCC(c2cccc(OC(F)F)c2)C1C(=O)Nc1ccc(F)c(F)c1F (stereo not shown) [Compound 325]
Plant response rating, Foxtail, Giant (giant foxtail; Postemergence, 125 g ai/ha, visual rating on 0 to 100 scale (0 no effect, 100 complete control), approx. 10 days): 90 | Plant response rating, Foxtail, Giant (giant foxtail; [3]): 90 | Plant response rating, Foxtail, Giant (giant foxtail; [4]): 90 | Foxtail, Giant plant response rating (giant foxtail; Preemergence, 500 g ai/ha, visual rating on 0 to 100 scale (0 no effect, 100 complete control)): 90 | Plant response rating, Ragweed (ragweed; [5]): 10 | Plant response rating, Ragweed (ragweed; [6]): 10 | Plant response rating, Ragweed (ragweed; [7]): 25 | Plant response rating, Ragweed (ragweed; [8]): 35 | Ragweed plant response rating (ragweed; [10]): 60 | Plant response rating, Ragweed (ragweed; [12]): 80 | Plant response rating, Ryegrass, Italian (ryegrass, Italian; [5]): 0 | Plant response rating, Ryegrass, Italian (ryegrass, Italian; [6]): 0 | Plant response rating, Ryegrass, Italian (ryegrass, Italian; [7]): 0 | Plant response rating, Ryegrass, Italian (ryegrass, Italian; [8]): 30 | Ryegrass, Italian plant response rating (ryegrass, Italian; [10]): 40 | Plant response rating, Ryegrass, Italian (ryegrass, Italian; [12]): 50 | Plant response rating, Waterhemp (waterhemp; [5]): 0 | Plant response rating, Waterhemp (waterhemp; [6]): 0 | Plant response rating, Waterhemp (waterhemp; [7]): 25 | Plant response rating, Waterhemp (waterhemp; [8]): 35 | Waterhemp plant response rating (waterhemp; [10]): 75 | Plant response rating, Waterhemp (waterhemp; [12]): 80 | Plant response rating, Barnyardgrass (barnyardgrass [1]; 500 g ai/ha): 70 | Plant response rating, Sedge, Umbrella (sedge, umbrella; 500 g ai/ha): 40 | Plant response rating, Johnsongrass (johnsongrass; [5]): 0 | Plant response rating, Johnsongrass (johnsongrass; [6]): 0 | Plant response rating, Johnsongrass (johnsongrass; [7]): 0 | Plant response rating, Johnsongrass (johnsongrass; [8]): 0 | Johnsongrass plant response rating (johnsongrass; [9]): 20 | Johnsongrass plant response rating (johnsongrass; [10]): 35 | Plant response rating, Johnsongrass (johnsongrass; [12]): 75 | Plant response rating (scale of 0 to 100), Johnsongrass (johnsongrass; Preemergence, 250 g ai/ha): 75 | Plant response rating, Barnyardgrass (barnyardgrass [2]; [5]): 10 | Plant response rating, Barnyardgrass (barnyardgrass [2]; [6]): 25 | Plant response rating, Barnyardgrass (barnyardgrass [2]; [7]): 70 | Plant response rating, Barnyardgrass (barnyardgrass [2]; [8]): 80 | Barnyardgrass plant response rating (barnyardgrass [2]; [9]): 85 | Barnyardgrass plant response rating (barnyardgrass [2]; [10]): 90 | Plant response rating, Barnyardgrass (barnyardgrass [2]; [11]): 95 | Plant response rating (scale of 0 to 100; 0 is no effect, 100 is complete control), Barnyardgrass (barnyardgrass [2]; Preemergence, 250 g ai/ha): 95 | Plant response rating, Velvetleaf (velvetleaf; [5]): 0 | Plant response rating, Velvetleaf (velvetleaf; [6]): 15 | Plant response rating, Velvetleaf (velvetleaf; [7]): 20 | Plant response rating, Velvetleaf (velvetleaf; [8]): 40 | Velvetleaf plant response rating (velvetleaf; [10]): 35 | Plant response rating, Velvetleaf (velvetleaf; [12]): 55 | Plant response rating, Crabgrass, Large (crabgrass, large; [5]): 55 | Plant response rating, Crabgrass, Large (crabgrass, large; [6]): 65 | Plant response rating, Crabgrass, Large (crabgrass, large; [7]): 65 | Plant response rating, Crabgrass, Large (crabgrass, large; [8]): 85 | Crabgrass, Large plant response rating (crabgrass, large; [9]): 95 | Crabgrass, Large plant response rating (crabgrass, large; [10]): 95 | Plant response rating, Crabgrass, Large (crabgrass, large; [12]): 95 | Plant response rating (scale of 0 to 100), Crabgrass, Large (crabgrass, large; Preemergence, 250 g ai/ha): 100 | Plant response rating, Oat, Wild (oat, wild; [5]): 0 | Plant response rating, Oat, Wild (oat, wild; [6]): 0 | Plant response rating, Oat, Wild (oat, wild; [7]): 5 | Plant response rating, Oat, Wild (oat, wild; [8]): 15

Cc1ccccc1NC(=O)C1C(=O)NCC1c1cc(F)c(F)c(F)c1 (racemic) [Compound 35]
Plant response rating, Foxtail, Giant (giant foxtail; Postemergence, 1000 g ai/ha, 0 to 100 scale (0 no effect, 100 complete control)): 90 | Plant response rating, Foxtail, Giant (giant foxtail; Preemergence, 1000 g ai/ha, visual rating on 0 to 100 scale (0 no effect, 100 complete control), approx. 10 days): 90 | Plant response rating, Ragweed (ragweed; [13]): 0 | Plant response rating, Ragweed (ragweed; [11]): 0 | Plant response rating, Ryegrass, Italian (ryegrass, Italian; [13]): 5 | Plant response rating, Ryegrass, Italian (ryegrass, Italian; [11]): 5 | Plant response rating, Barnyardgrass (barnyardgrass [1]; 250 g ai/ha): 0 | Plant response rating, Sedge, Umbrella (sedge, umbrella; 250 g ai/ha): 0 | Plant response rating, Johnsongrass (johnsongrass; [13]): 0 | Plant response rating, Johnsongrass (johnsongrass; [11]): 0 | Plant response rating, Velvetleaf (velvetleaf; [13]): 20 | Plant response rating, Velvetleaf (velvetleaf; [11]): 20 | Crabgrass, Large plant response rating (crabgrass, large; Preemergence, 31 g ai/ha, scale 0 to 100 (0 no effect, 100 complete control)): 95 | Plant response rating, Crabgrass, Large (crabgrass, large; [13]): 98 | Plant response rating, Crabgrass, Large (crabgrass, large; [11]): 100 | Plant response rating, Crabgrass, Large (crabgrass, large; Preemergence, 250 g ai/ha, scale 0 to 100 (0 no effect, 100 complete control)): 100 | Plant response rating, Oat, Wild (oat, wild; [13]): 0 | Plant response rating, Oat, Wild (oat, wild; [11]): 0
